# Measured values from publication PMC6467816 (Journal of peptide science : an official publication of the …, 2019).
# Peptide text beside a SMILES is read from it.
# Assays:
# [1] = system: HOS.CD4.CCR5 cells; assay: MTT; assay type: cell-based; settings: concentrations 50 fold higher than IC50 values, 24 hours continuous cellular exposure
# [2] = In vitro stability to proteolysis in human serum; assay type: in vitro ADME; settings: 24 h treatment, 37 °C, RP-HPLC 280 nm
# [3] = system: chymotrypsin; settings: cited from earlier work
# [4] = system: trypsin; settings: cited from earlier work
# [5] = system: viruses pseudotyped with vesicular stomatitis virus glycoprotein, VSV-G; assay type: cell-based
# [6] = rat, in vivo; cited from earlier work
# [7] = Pharmacokinetic analysis after intravenous bolus in rats; assay type: in vivo, Sprague-Dawley rats
SMILES,Toxicity in target HOS.CD4.CCR5 cells [1],Stability to human serum protease mixture [2],Resistance to proteolysis by chymotrypsin [3],Resistance to proteolysis by trypsin [4],Inhibition of VSV-G pseudotyped virus [5],Clearance rate [6],"Time over which plasma level was detectable ([7]; after tail vein administration to rats, fluorescence) [h]","AUC(0-inf) ([7]; rat, in vivo, iv, 0.01 mg/kg) [ng·h/mL]","Vd ([7]; rat, in vivo, iv, 0.01 mg/kg) [L]","clearance ([7]; rat, in vivo, iv, 0.01 mg/kg, CL (ml/h), clearance, intravenous bolus 0.01 mg/kg FITC (equiv), Sprague-Dawley rats) [mL/min]","half-life ([7]; rat, in vivo, iv, 0.01 mg/kg, t1/2α (h), distribution half life, intravenous bolus 0.01 mg/kg FITC (equiv), Sprague-Dawley rats) [h]","half-life ([7]; rat, in vivo, iv, 0.01 mg/kg, t1/2β (h), elimination half life, intravenous bolus 0.01 mg/kg FITC (equiv), Sprague-Dawley rats) [h]"
"CC[C@H](C)[C@@H]1NC(=O)[C@H](CC(N)=O)NC(=O)[C@@H](N)CC(=O)NCCCC[C@@H](C(N)=O)NC(=O)[C@H](Cc2c[nH]c3ccccc23)NC(=O)[C@@H]2C[C@H](n3cc(C4=CC=C[CH]4[Fe][CH]4C=CC=C4)nn3)CN2C1=O (stereo partly shown) [AAR029b] (HELM PEPTIDE1{D.N.I.[O=C([C@@H]1C[C@H](n2cc(C3=CC=C[CH]3[Fe][CH]3C=CC=C3)nn2)CN1[*:1])[*:2]].W.K.[am]}$PEPTIDE1,PEPTIDE1,1:R3-6:R3$$$V2.0; N-terminus and C-terminus assumed)",No toxicity,intact,resistant to proteolysis,resistant to proteolysis,did not inhibit,–,–,–,–,–,–,–
COc1ccnc2[nH]cc(C(=O)C(=O)N3CCN(C(=O)c4ccccc4)C[C@H]3C)c12 [BMS-378806],–,–,–,–,–,~ 1800 mL/h,–,–,–,–,–,–
"CC[C@H](C)[C@@H]1NC(=O)[C@H](CC(N)=O)NC(=O)[C@@H](NC(=S)Nc2ccc3c(c2)C(=O)OC32c3ccc(O)cc3Oc3cc(O)ccc32)CC(=O)NCCCC[C@@H](C(N)=O)NC(=O)[C@H](Cc2c[nH]c3ccccc23)NC(=O)[C@@H]2C[C@H](n3cc(C4=CC=C[CH]4[Fe][CH]4C=CC=C4)nn3)CN2C1=O (stereo partly shown) [FITC-AAR029b] (HELM PEPTIDE1{[O=C1OC2(c3ccc(O)cc3Oc3cc(O)ccc32)c2ccc(NC(=S)[*:2])cc21].D.N.I.[O=C([C@@H]1C[C@H](n2cc(C3=CC=C[CH]3[Fe][CH]3C=CC=C3)nn2)CN1[*:1])[*:2]].W.K.[am]}$PEPTIDE1,PEPTIDE1,2:R3-7:R3$$$V2.0; C-terminus assumed)",–,intact,–,–,–,–,≤ 7,40 ± 40,0.542 ± 0.119,2.27,0.029 ± 0.01,~3
